Reference: publication PMC11856108, “Capsaicin (But Not Other Vanillins) Enhances Estrogen Binding to Its Receptor: Implications for Power Sports and Cancers” (Life, 2025)
Where two headings read alike, the source gives them in different places.

Columns and labels:
[1] = Binding to steroid hormone by UV spectroscopy
Method: (§1) UV spectroscopy in a crystal plate was used to investigate whether CAP has specificity for estrogen alone or whether it can bind to other naturally occurring hormones. To start, CAP was dissolved in a 1:1 solution of water to ethanol at 1 mg/mL ( 3.27×10^−3 M ) and then diluted by thirds eight times. Next, the hormones were dissolved in a 1:1 solution of water to ethanol at a 1/100 dilution. An amount of 50 μL of each CAP dilution was added to 3 wells of a crystal plate, with one well serving as the control, with another 50 μL of 1:1 water to ethanol added, and the other two serving as experimental duplicates, with 50 μL of the prepared hormone solution added. Then, two additional wells were prepared to serve as controls: one containing 100 μL of 1:1 water to ethanol and the other containing 50 μL of prepared hormone solution and 50 μL of 1:1 water to ethanol. Finally, the plate was incubated for 1 h and read in a Spectramax UV-VIS scanning spectrophotometer, spanning wavelengths from 190 to 400 nm. Data analysis involved the subtraction of observed absorbance values from expected absorbance values generated from the control wells ([CAP + 1:1 solution] + [hormone + 1:1 solution] − [1:1 solution]) and plotting them as a function of CAP concentration. Because the solvent (1:1 solution of water–ethanol) was used as a control and subtracted from all wells, the resulting data reflected only the absorbances of the solute compounds. Since each compound has a different lambda maximal absorbance, analysis of the resulting data required finding one common wavelength at which the additions and subtractions of the spectra could be carried out and at which the absorbance of each compound was maximized.
Experiments were also performed to test whether the enhancement or antagonism observed in estradiol binding to the ESR1 might be due to vanilloid compounds binding directly to estradiol or to related steroidal hormones, perhaps protecting them from oxidation or forming a complex that prevented the estradiol binding to its receptor. No vanilloid compound bound to a measurable degree to estradiol or any other steroidal hormone tested.

[2] = target: insulin (human recombinant) (Homo sapiens, UniProt P01308); test: Binding to insulin by ultraviolet spectroscopy; settings: UV spectroscopy
Chain of insulin (human recombinant) (P01308 25-54 limits assumed): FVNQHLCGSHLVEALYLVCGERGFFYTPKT
Chain of insulin (human recombinant) (P01308 90-110 limits assumed): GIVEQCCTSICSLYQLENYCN

[3] = target: insulin receptor (IR) (Homo sapiens, UniProt P06213); test: Binding to the insulin receptor by ultraviolet spectroscopy; settings: UV spectroscopy
Chain of insulin receptor (IR) (P06213 28-1382, species assumed): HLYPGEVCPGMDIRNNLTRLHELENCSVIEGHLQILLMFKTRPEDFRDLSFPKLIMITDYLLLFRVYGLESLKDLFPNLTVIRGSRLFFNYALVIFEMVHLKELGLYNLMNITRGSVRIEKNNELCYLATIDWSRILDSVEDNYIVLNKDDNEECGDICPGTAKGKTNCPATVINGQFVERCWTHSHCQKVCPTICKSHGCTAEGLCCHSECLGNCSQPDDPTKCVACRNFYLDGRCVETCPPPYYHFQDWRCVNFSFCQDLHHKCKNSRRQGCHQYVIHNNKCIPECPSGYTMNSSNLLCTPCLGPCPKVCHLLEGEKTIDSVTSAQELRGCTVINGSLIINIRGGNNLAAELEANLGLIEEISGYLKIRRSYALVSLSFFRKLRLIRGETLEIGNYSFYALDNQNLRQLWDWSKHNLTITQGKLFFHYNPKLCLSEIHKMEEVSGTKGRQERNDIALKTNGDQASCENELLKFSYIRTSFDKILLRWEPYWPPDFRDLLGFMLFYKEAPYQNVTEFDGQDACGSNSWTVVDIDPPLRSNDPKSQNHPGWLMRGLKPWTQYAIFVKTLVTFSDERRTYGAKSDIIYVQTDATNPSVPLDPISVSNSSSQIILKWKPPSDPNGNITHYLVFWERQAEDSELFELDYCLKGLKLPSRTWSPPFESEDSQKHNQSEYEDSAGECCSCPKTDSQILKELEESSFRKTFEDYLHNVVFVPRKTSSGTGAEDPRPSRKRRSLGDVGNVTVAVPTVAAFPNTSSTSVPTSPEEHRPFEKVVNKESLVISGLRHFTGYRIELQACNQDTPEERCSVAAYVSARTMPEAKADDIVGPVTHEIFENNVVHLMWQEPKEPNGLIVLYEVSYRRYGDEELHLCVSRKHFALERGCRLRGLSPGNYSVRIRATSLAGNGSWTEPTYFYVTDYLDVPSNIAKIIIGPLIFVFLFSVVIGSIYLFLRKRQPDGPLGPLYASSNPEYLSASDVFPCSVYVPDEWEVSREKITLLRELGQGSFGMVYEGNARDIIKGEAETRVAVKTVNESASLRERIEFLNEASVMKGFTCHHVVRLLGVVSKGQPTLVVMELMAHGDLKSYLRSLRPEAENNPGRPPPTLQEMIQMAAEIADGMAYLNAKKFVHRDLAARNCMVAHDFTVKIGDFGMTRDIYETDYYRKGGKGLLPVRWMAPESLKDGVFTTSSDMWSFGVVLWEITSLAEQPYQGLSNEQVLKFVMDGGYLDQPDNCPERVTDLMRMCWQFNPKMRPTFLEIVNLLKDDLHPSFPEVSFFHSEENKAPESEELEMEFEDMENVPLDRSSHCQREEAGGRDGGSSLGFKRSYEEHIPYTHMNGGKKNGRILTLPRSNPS
Method: as §1
[17, 19, 20, 21, 22, 23]. […] Because CAP binds to INS, it was possible that it might antagonize INS binding to its receptor. […] Two types of ultraviolet spectroscopy experiments were performed. In one, INS (1 µM) and the IR were kept constant and the concentration of CAP increased from 0.1 µM to 100 µM. In the other, the CAP (25 µM) and IR were kept constant and the concentration of INS increased from 10 nM to 10 µM. In neither experiment was any significant change in the INS binding curve observed.
CAP did bind to the ESR1 with what appears to be a high affinity (Kd = 0.9 µM) and a lower affinity (Kd = 10 µM) site. […] Other vanilloid compounds also bound to the ESR1 but with lower affinity than CAP (Figure 6). None bound to the IR.

[4] = target: T1, ESR1 (Homo sapiens, UniProt P03372); test: Competitive-binding ELISA of EST-HRP binding to the estrogen receptor
T1 construct: purchased Invitrogen-Thermofisher
T1 sequence (P03372 1-595): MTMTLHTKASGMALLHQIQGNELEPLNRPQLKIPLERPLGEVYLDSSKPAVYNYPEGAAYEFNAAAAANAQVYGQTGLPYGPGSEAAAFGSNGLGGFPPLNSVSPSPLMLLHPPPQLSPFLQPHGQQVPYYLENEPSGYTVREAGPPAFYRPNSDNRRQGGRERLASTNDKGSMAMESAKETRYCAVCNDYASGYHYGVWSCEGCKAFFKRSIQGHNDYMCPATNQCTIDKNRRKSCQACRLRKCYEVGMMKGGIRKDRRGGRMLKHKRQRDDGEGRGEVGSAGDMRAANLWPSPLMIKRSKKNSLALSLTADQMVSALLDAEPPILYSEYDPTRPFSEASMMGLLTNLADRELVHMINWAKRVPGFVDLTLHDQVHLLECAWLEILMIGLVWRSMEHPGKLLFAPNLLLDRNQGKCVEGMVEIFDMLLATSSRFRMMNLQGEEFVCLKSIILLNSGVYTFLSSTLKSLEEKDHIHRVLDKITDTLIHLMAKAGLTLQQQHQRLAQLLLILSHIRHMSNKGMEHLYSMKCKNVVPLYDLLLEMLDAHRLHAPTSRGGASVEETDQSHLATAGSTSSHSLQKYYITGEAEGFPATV

[5] = target: T2, Estrogen receptor alpha (ER alpha) recombinant protein (ESR1) (Homo sapiens, UniProt P03372); test: Binding to the estrogen receptor by ultraviolet spectroscopy; settings: UV spectroscopy; listed as vanillin
T2 sequence (P03372 1-595): T1 sequence (P03372 1-595)

Compound | Binding (Kd) 4-Androstene-3,17-dione [1] | Binding (Kd) 5-Pregnan-3β-OL-2O-one [1] | Binding (Kd) Estradiol [1] | Binding (Kd) Estriol [1] | Binding (Kd) Progesterone [1] | Binding (Kd) Estradiol ([1]; listed as acetaminophen) | binding to insulin (in words) [2] | Binding (Kd) Estradiol ([1]; listed as vanillic acid) | Kd ([2]; Binding (Kd) Insulin, Table 1) [µM] | binding to the insulin receptor (in words) [3] | effect on estradiol (EST-HRP) binding to the estrogen receptor [4] | effect on estradiol (EST-HRP) binding to the estrogen receptor ([4]; listed as VAN) | Binding (Kd) Estradiol ([1]; listed as vanillin) | binding to insulin (in words) ([2]; listed as vanillin) | binding to the estrogen receptor (in words) [5]
CC(=O)Nc1ccc(O)cc1 [Acetaminophen, acetaminophen] | No binding | No binding | No binding | No binding | No binding | did not bind directly to estradiol | Neither vanillin nor acetaminophen bound significantly to insulin | – | – | – | – | – | – | – | –
COc1cc(C(=O)O)ccc1O [Van Acid, vanillic acid] | No binding | No binding | No binding | No binding | No binding | – | bound almost as well as capsaicin | did not bind directly to estradiol | 4 | – | – | – | – | – | –
COc1cc(C=O)ccc1O [Vanillin, vanillin] | No binding | No binding | No binding | No binding | No binding | – | – | – | – | did not bind significantly | no effect on estradiol binding | no significant effect on estradiol binding | did not bind directly to estradiol | Neither vanillin nor acetaminophen bound significantly to insulin | weakly to the estrogen receptor
C[C@]12CC[C@@H]3c4ccc(O)cc4CC[C@H]3[C@@H]1CC[C@@H]2O [estradiol] | – | – | – | – | – | – | – | – | – | did not bind to the IR | – | – | – | – | –
